Results reported in patent publication US11661433B2, “Near-IR activatable fluorescent small molecules with dual modes of cytotoxicity” (VIRGINIA COMMONWEALTH UNIVERSITY, priority 2018, dated 2023).
Like-named read-outs stand apart in the source and are kept apart here. Values belong to the molecule of their own block, whether it stands above or below them.

How the values were obtained:
[1] = test system: C-33 A (human cervical carcinoma); assay: MTT assay, C-33 A cells; type: cell-based
Procedure: (§1) MTT assay: Cytotoxic profiles of the compounds were assessed in the following cell lines (passage number not exceeding 15): MCF-7 (human breast cancer) C-33 A (human cervical carcinoma) and HEK293T (transformed human kidney). Around 6000 cells were seeded in 96 well transparent flat-bottom tissue-culture plate in 200 μl of Dulbecco's Modified Eagle Medium (DMEM) containing 10% FBS (Fetal Bovine Serum) and were incubated for 24 h at 37° C. and 5% CO2. We performed an initial control experiment with vehicle alone (0.1% DMSO-DMEM) on cells with different dosages of near-IR light and compared it to unexposed counterparts. […] One such plate was exposed to near-IR light for 45 min in phenol-red free DMEM (200 μl) and room temperature was maintained using a cooling system. Another identical plate was kept in dark. The plates were incubated for another 24 h in dark. Finally, MTT [3-(4,5-dimethylthiazole-2-yl)-2,5-diphenyltetrazolium bromide] (25 μl of 5 mg/ml solution in PBS) was added and incubated for 3-4 h. The absorbance of the precipitated formazan was recorded at 550 nm in DMSO. Cells treated with 0.1% DMSO-DMEM was kept as controls which represented 100% viability. The half-growth inhibitory concentration (IC50) values were calculated by nonlinear regression analysis using GraphPad Prism5. The data is represented from two independent set of experiments, each of which was performed in triplicate.

[2] = test system: MCF-7 (human breast cancer); assay: MTT assay, MCF-7 cells; type: cell-based
Procedure: as §1

ctDNA [3] = assay: DNA bound Pt content by ICP-MS; type: biochemical; settings: extended incubation with ctDNA in the dark
Procedure: DNA bound Pt content: A 1×-PBS solution containing ctDNA (500 μM) and 1 (50 μM in 0.1% DMSO-PBS) was irradiated with near-IR light (720-740 nm) for 15, 30 and 60 mins. Another identical set was incubated in dark for comparison. After treatment, the DNA was precipitated from the solutions using 10 mL of cooled ethanol, vortexed, and collected by centrifugation. The precipitate was washed twice with cooled ethanol (5 mL) to remove soluble platinum complexes. The white fibrous precipitate was dissolved using 200 μl of conc. HNO3 for 12 h and diluted with distilled water to 2% HNO3-water solutions. Platinum content was measured by ICP-MS instrument. Untreated samples (DNA alone, complex alone) were kept for control. Platinum standards were made by dissolving K2PtCl4 in 98% aq. HNO3 and used for calibration. The data along with the deviation is reported based on experiments performed in duplicate.

human cancer cell lines = assay: MTT cytotoxicity in a panel of human cancer cell lines; type: cell-based; settings: dark, similar conditions
Procedure: MTT assay: Cytotoxic profiles of the compounds were assessed in the following cell lines (passage number not exceeding 15): MCF-7 (human breast cancer) C-33 A (human cervical carcinoma) and HEK293T (transformed human kidney). Around 6000 cells were seeded in 96 well transparent flat-bottom tissue-culture plate in 200 μl of Dulbecco's Modified Eagle Medium (DMEM) containing 10% FBS (Fetal Bovine Serum) and were incubated for 24 h at 37° C. and 5% CO2. We performed an initial control experiment with vehicle alone (0.1% DMSO-DMEM) on cells with different dosages of near-IR light and compared it to unexposed counterparts. The cells were unharmed by light and vehicle alone up to 45 min of photoirradiation. Cells were treated with various concentrations of 1, 2, IR797-acac, cisplatin and an equimolar mixture of IR797-acac and cisplatin in 0.1% DMSO-DMEM for 4 h or 48 h in the dark. One such plate was exposed to near-IR light for 45 min in phenol-red free DMEM (200 μl) and room temperature was maintained using a cooling system. Another identical plate was kept in dark. The plates were incubated for another 24 h in dark. Finally, MTT [3-(4,5-dimethylthiazole-2-yl)-2,5-diphenyltetrazolium bromide] […] The absorbance of the precipitated formazan was recorded at 550 nm in DMSO. […] The half-growth inhibitory concentration (IC50) values were calculated by nonlinear regression analysis using GraphPad Prism5. […]

[4] = Photodecomposition and dark stability (absorbance, LC-MS); type: physicochemical; settings: buffer, pH 7.4
Procedure: High performance liquid chromatography: For verifying purity, samples (25 μl in 2.5% DMSO-H2O) were loaded on an analytical C18 column and gradient was maintained at 10-100 percent of MeCN—H2O from 10-50 min. The absorbance was measured at different wavelengths within the range of 200-800 nm. For photolysis experiments, solution of 1 (30 μl of 100 nM in 0.01% of DMSO-PBS, irradiated for 1 min) was injected on the column and eluted using the same gradient as above.
Liquid-chromatography mass spectral experiments: Solutions of 1 and IR797-acac (100 nM in 0.01% DMSO-PBS) were used to carry out LC-MS studies. Samples were injected on a self-packed fused silica (polymicro technologies) trap column (360 micron o.d.×100 micron i.d.) with a Kasil frit packed with 5-15 micron irregular phenyl C-18 YMC packing. The trap column is connected to an analytical column (360 micron×50 micron) with a fritted tip at 5 micron or less (New Objective) packed with 5 μm phenyl C-18 YMC packing. Compounds were initially trapped and then eluted into a Thermo Finnigan LCQ deca XP max mass spectrometer (Thermo Scientific) with an acetonitrile gradient from 0% to 80% over 5 minutes at a flow rate of between 50-150 nl/min. […]

ctDNA [5] = assay: DNA melting experiments and Hoechst displacement assays; type: binding; settings: in the dark
Procedure: DNA thermal denaturation experiments: The DNA thermal denaturation experiments were performed by monitoring the absorption intensity of ct-DNA (200 μM) at 260 nm at increasing temperatures (from 40 to 90° C.), both in the absence and presence of complex 1 and IR797-acac (20 μM in 1% DMSO-DPBS solutions, pH=7.2). The experiments were performed using Agilent UV-visible spectrophotometer connected to a Peltier thermostat for temperature control. Data was recorded with increasing the temperature of the solution by 1.0° C. per min. The derivative of the melting plots gave the DNA melting temperature (Tm) of the ct-DNA. Ethidium bromide (20 μM) as a standard intercalator was used for comparison.

Solubility in solvents = type: physicochemical
Procedure: Synthesis of IR797-acac: IR797 chloride (250 mg, 0.49 mmol), acetylacetone (245 μl, 2.45 mmol) and N,N-diisopropylethylamine (90 μl, 0.49 mmol) were dissolved in acetonitrile (10 mL) in a sealed vial. The dark green colored solution was heated at 70° C. on a microwave apparatus (Discover, CEM, 60 W) for 15 mins. The progress of the reaction was monitored via TLC and stopped only after full consumption of the starting dye. The reaction mixture was allowed to cool down to room temperature and dichloromethane (50 mL) was added. The organic layer was washed using saturated sodium bicarbonate solution (2×10 ml), dried over anhydrous sodium sulfate, filtered, and evaporated using a rotavac. The crude material was subjected to column chromatography using ethyl acetate (100%) and dichloromethane-methanol eluents (0-10%) to yield pure product, IR797-acac (150 mg, 50% yield). ^1H NMR (400 MHz, CDCl3): δ (ppm)=7.43-7.36 (m, 4H), 7.31 (d, J=7.4 Hz, 2H), 7.21 (t, J1=J2=7.2 Hz, 2H), 7.11 (d, J=8.0 Hz, 2H), 6.20 (d, J=14 Hz, 2H), 3.74 (s, 6H), 3.15 (s, 4H), 2.00 (s, 6H), 1.58 (s, 12H). ^13C NMR (100 MHz, CDCl3): δ (ppm)=191.42, 170.78, 144.66, 142.96, 140.71, 137.40, 128.80, 124.99, 122.04, 110.04, 103.39, 48.82, 32.53, 28.42, 23.60. ESI-MS in MeCN: m/z (expected)=533.33, m/z (observed)=533.32 [M-Cl]^+ (100%). […]

SMILES: N.N.[Cl][Pt][Cl] [CP, cisplatin, reference compound]
- IC50 ([1]; cisplatin incubated 48 h in the dark, light 45 mins, 720-740 nm, read-out: IC50 C-33 A Light): 16.1 ± 1.5 µM
- IC50 ([1]; cisplatin incubated 48 h in the dark, read-out: IC50 C-33 A Dark): 17.7 ± 1.5 µM
- IC50 ([2]; cisplatin incubated 48 h in the dark, light 45 mins, 720-740 nm, read-out: IC50 MCF-7 Light): 22.5 ± 3.2 µM
- IC50 ([2]; cisplatin incubated 48 h in the dark, read-out: IC50 MCF-7 Dark): 25 ± 2.2 µM

SMILES: CC1=CC(C)=[O+][Pt-2]([NH3+])([NH3+])[O]1.O=[N+]([O-])[O-] (centres unmarked) [Complex 2, [Pt(NH3)2(acac)](NO3)], reference compound]
- incorporation of Pt into DNA in the dark (ctDNA [3]): slow incorporation

- IC50 ([1]; 4 h in dark, then light 45 mins, 720-740 nm, 3.5 ± 1.5 mW·cm^−2, read-out: IC50 C-33 A Light): 0.3 ± 0.07 µM
- IC50 ([1]; 4 h in the dark, read-out: IC50 C-33 A Dark): 1.2 ± 0.1 µM
- IC50 ([2]; 4 h in dark, then light 45 mins, 720-740 nm, 3.5 ± 1.5 mW·cm^−2, read-out: IC50 MCF-7 Light): 4.7 ± 0.8 µM
- IC50 ([2]; 4 h in the dark, read-out: IC50 MCF-7 Dark): 5.9 ± 0.3 µM
- half-life of photodecomposition t1/2^L [4]: ~40 s
- stability in dark t1/2^D [4]: ~10 h
- DNA interaction mode (ctDNA [5]): interact with the minor groove of ctDNA
- solubility (Solubility in solvents): readily soluble in polar solvents
SMILES: CC(=O)C(=C(C)O)C1=C(C=CC2=[N+](C)c3ccccc3C2(C)C)CCC1=CC=C1N(C)c2ccccc2C1(C)C.[Cl-] [IR797-acac]
- toxicity in unexposed cells (human cancer cell lines): toxic on its own
